Source: EP3635128B1, “CONTINUOUS SPECTROMETRIC ASSAYS FOR MEASURING MEPRIN ACTIVITY USING AN AUXILIARY ENZYME” (Vivoryon Therapeutics AG, priority 2017, dated 2018)
Read-outs that look alike come from different tables or passages of the source. Each block holds one compound with its values, some of them ahead of it. Peptide text beside a SMILES is read from it. * marks the point of attachment. pNA = O=[N+]([O-])c1ccc(N*)cc1; AMC = Cc1cc(=O)oc2cc(N*)ccc12

Legend:
h-meprin β [1] = target: T1, h-meprin β (Homo sapiens, UniProt Q16820); test: coupled continuous fluorometric assay with auxiliary enzyme PtP and fluorogenic AMC substrates; type: biochemical; set-up: His6 (N); made in house; host or cells: Pichia pastoris strain X33
T1 sequence (Q16820 62-701): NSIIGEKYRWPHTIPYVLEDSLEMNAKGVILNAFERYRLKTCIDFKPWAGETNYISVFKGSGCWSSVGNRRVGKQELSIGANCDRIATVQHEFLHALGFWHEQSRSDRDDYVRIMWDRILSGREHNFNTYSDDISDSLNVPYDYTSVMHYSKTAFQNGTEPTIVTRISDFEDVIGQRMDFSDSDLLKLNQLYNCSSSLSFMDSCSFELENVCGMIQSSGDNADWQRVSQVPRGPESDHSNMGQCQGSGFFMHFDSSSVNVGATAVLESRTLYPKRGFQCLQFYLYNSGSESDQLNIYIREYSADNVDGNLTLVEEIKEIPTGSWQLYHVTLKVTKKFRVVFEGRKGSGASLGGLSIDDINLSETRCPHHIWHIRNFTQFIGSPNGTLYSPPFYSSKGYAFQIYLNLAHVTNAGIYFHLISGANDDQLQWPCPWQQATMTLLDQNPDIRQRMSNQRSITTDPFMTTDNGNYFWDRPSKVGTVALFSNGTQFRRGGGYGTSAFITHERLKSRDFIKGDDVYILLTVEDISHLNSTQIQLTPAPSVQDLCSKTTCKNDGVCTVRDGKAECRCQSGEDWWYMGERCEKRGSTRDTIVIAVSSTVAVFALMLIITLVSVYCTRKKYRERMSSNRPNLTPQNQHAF
Method: (§1) The enzyme assay consisted of prolyl tripeptidyl aminopeptidase from Porphyromonas gingivalis, an appropriate amount of human h-meprin β or α and the chromogenic substrate KKGYVADAP-pNA (stock solution in assay buffer) in a final volume of 0.25 ml h-meprin β assay buffer (20 mM Tris-HCI; pH 7.5) or h-meprin α assay buffer (20 mM HEPES, 10 mM CaCl2, 0,05% Brij; pH 7.4). After 10 minutes preincubation, the reaction was started by addition of the substrate. Subsequently, absorption was measured at 405 nm for 20 minutes with the Tecan Genios Pro Reader (Tecan) at 30°C. PtP activity was determined using an absorption coefficient of 5717 mol/l, which was obtained from a standard curve of p-nitroaniline under assay conditions. A molecular mass of 79500 Da was used to calculate the Kcat value. Prolyl tripeptidyl aminopeptidase activity was measured utilizing the substrate DAP-pNA. In order to maintain conditions identical to those used in the h-meprin β assay, samples (250 µl) contained a final concentration of 0.2% (v/v) dimethyl sulfoxide. One unit is defined as the amount of enzyme that hydrolyses 1 µmol DAP-pNA per minute under the conditions described. The specific activity of the enzyme preparation was 7 units/mg.
Conversion of the fluorogenic substrate KKGYVADAP-AMC by PtP and h-meprin β was analyzed according to assay conditions as described for the chromogenic substrate. Fluorescence was measured at excitation/emission wavelengths of 380/460 nm. The fluorescence coefficient of 8.5×10^8 mol/l for DAP-AMC was calculated from a standard curve of 7-Amino-4-methylcoumarin under assay conditions.

h-meprin β [2] = target: T1, h-meprin β; test: coupled continuous spectrophotometric assay with auxiliary enzyme PtP and chromogenic pNA substrates; type: biochemical; set-up: His6 (N); made in house; host or cells: Pichia pastoris strain X33; settings: for Kcat / Kcat/KM (s^-1M^-1) / Km: hydrolysis of pNA substrate by meprin β, means ± S.D.
Method: as §1
(§2) In the first reaction of the substrate conversion, KKGYVADAP-pNA is cleaved to DAP-pNA by meprin α or β. The second reaction, the release of p-nitroaniline by PtP can be measured in this assay and correlates to the amount of released DAP-pNA by meprin. Based on these terms, a rate equation for irreversible coupled enzyme assays was first described by McClure, giving the opportunity of calculating the required amount of an auxiliary enzyme to minimize the time to reach steady-state conditions (McClure, W. R., Biochemistry. 1969, 8 (7), 2782-2786; Schilling, S., Hoffmann, T., Wermann, M., Heiser, U., Wasternack, C., Demuth, H.-U., Analytical biochemistry. 2002, 303 (1), 49-56, 10.1006/abio.2001.5560). The amount of auxiliary enzyme was calculated as follows (Eq. 1): V2 = −Km2 × ln(1−[DAP−pNA]t/[DAP−pNA]ss)/t. [formula]

h-meprin β [3] = target: T1, h-meprin β; test: as above; type: biochemical; set-up: His6 (N, cleaved yes); made in house; host or cells: Pichia pastoris X33 (pPICZαC), protein harvested from the fermenter supernatant
Method: as §1, §2

h-meprin α [4] = target: T2, h-meprin α (Homo sapiens, UniProt Q16819); test: non-coupled assay with internally quenched fluorogenic substrate; type: biochemical; settings: fluorogenic substrate Abz-YVADAPK(Dpn)G-OH; unpublished data
T2 construct: His-tag (N); made in house; host or cells: Drosophila melanogaster S2 cells, stably transfected (pMT/BiP/V5-His C), protein harvested from the culture medium
T2 sequence (Q16819 66-746): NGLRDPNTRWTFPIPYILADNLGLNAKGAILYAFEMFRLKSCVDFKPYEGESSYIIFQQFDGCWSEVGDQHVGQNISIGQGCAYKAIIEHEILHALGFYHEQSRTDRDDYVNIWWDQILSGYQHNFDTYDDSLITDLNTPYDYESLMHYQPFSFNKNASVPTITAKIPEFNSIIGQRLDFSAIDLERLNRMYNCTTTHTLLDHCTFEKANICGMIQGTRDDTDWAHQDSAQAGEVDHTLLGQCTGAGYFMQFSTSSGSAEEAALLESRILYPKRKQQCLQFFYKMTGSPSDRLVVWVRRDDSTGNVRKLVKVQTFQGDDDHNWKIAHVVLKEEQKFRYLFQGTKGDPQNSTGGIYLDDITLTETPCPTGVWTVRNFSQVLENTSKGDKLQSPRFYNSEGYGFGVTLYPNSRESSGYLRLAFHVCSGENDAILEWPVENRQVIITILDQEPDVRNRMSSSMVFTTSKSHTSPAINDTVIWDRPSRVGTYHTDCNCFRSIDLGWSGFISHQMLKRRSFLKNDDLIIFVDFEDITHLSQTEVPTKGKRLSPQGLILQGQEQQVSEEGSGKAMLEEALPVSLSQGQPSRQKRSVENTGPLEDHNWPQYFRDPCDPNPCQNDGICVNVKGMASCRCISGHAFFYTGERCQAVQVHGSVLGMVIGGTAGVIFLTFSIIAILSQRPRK

h-meprin β [5] = target: T1, h-meprin β; set-up: His6 (N, cleaved yes); made in house; host or cells: Pichia pastoris X33 (pPICZαC), protein harvested from the fermenter supernatant; settings: fluorogenic substrate Abz-YVAEAPK(Dpn)G-OH; from Schlenzig et al. 2015; cited from earlier work
h-meprin α [6] = target: T2, h-meprin α; test: coupled continuous spectrophotometric assay with auxiliary enzyme PtP and chromogenic substrate KKGYVADAP-pNA; type: biochemical
Method: as §1, §2

h-meprin β [7] = target: T1, h-meprin β; set-up: His6 (N); made in house; host or cells: Pichia pastoris strain X33; settings: cited from earlier work; for substrate inhibition at concentrations above: internally quenched substrate, meprin β
[8] = hydrolysis of AMC substrate by meprin β, means ± S.D.
[9] = Dixon plot, four substrate concentrations of KKGYVADAP-pNA
[10] = chromogenic substrate KKGYVADAP-pNA, coupled continuous assay, means ± S.D.
[11] = substrate KKGYVADAP-pNA, six inhibitor and four substrate concentrations
[12] = hydrolysis of internally quenched substrate by meprin β, from Schlenzig et al. 2015

Compound: CC(=O)N[C@@H](CCCCN)C(=O)N[C@@H](CCCCN)C(=O)NCC(=O)N[C@@H](Cc1ccc(O)cc1)C(=O)N[C@H](C(=O)N[C@@H](C)C(=O)N[C@@H](CC(=O)O)C(=O)N[C@@H](C)C(=O)N1CCC[C@H]1C(=O)Nc1ccc2c(C)cc(=O)oc2c1)C(C)C [Ac-KKGYVADAP-AMC] (Ac-KKGYVADAP-{AMC})
Kcat (h-meprin β [1]; [8]): 6.3 ± 1 s⁻¹
Kcat/KM (s^-1M^-1) (h-meprin β [1]; [8]): 10.0×10^4 ± 1.4×10^4 s^-1M^-1
Km (h-meprin β [1]; [8]): 64 µM

Compound: CC(=O)N[C@@H](CCCCN)C(=O)N[C@@H](CCCCN)C(=O)NCC(=O)N[C@@H](Cc1ccc(O)cc1)C(=O)N[C@H](C(=O)N[C@@H](C)C(=O)N[C@@H](CC(=O)O)C(=O)N[C@@H](C)C(=O)N1CCC[C@H]1C(=O)Nc1ccc([N+](=O)[O-])cc1)C(C)C [Ac-KKGYVADAP-pNA] (Ac-KKGYVADAP-pNA)
Kcat (h-meprin β [2]): 20.0 ± 3.5 s⁻¹
Kcat/KM (s^-1M^-1) (h-meprin β [2]): 6.4x10^4 ± 2.5x10^4 s^-1M^-1
Km (h-meprin β [2]): 360 µM

Compound: CC(=O)N[C@@H](CCCNC(=N)N)C(=O)NCC(=O)N[C@@H](CCCNC(=N)N)C(=O)NCC(=O)N[C@@H](Cc1ccc(O)cc1)C(=O)N[C@H](C(=O)N[C@@H](C)C(=O)N[C@@H](CC(=O)O)C(=O)N[C@@H](C)C(=O)N1CCC[C@H]1C(=O)Nc1ccc([N+](=O)[O-])cc1)C(C)C [Ac-RGRGYVADAP-pNA] (Ac-RGRGYVADAP-pNA)
Kcat (h-meprin β [2]): 19.9 ± 10.2 s⁻¹
Kcat/KM (s^-1M^-1) (h-meprin β [2]): 15.0×10^4±1.1×10^5 s^-1M^-1
Km (h-meprin β [2]): 140 µM

Compound: Cc1cc(=O)oc2cc(NC(=O)[C@@H]3CCCN3C(=O)[C@H](C)NC(=O)[C@H](CC(=O)O)NC(=O)[C@H](C)NC(=O)[C@@H](NC(=O)[C@H](Cc3ccc(O)cc3)NC(=O)CNC(=O)[C@H](CCCCN)NC(=O)[C@@H](N)CCCCN)C(C)C)ccc12 [KKGYVADAP-AMC, H-Lys-Lys-Gly-Tyr-Val-Ala-Asp-Ala-Pro-AMC] (H-KKGYVADAP-{AMC})
substrate inhibition (h-meprin β [1]; at concentrations up to 2 mM): no inhibitory effect
Kcat (s^-1) (h-meprin β [1]; [8]): 4.3 ± 6.1×10^-1 s^-1
Kcat/KM (s^-1M^-1) (h-meprin β [1]; [8]): 6.0×10^4 ± 1.6×10^4 s^-1M^-1
Km (h-meprin β [1]; [8]): 74 µM

Compound: CC(C)[C@H](NC(=O)[C@H](Cc1ccc(O)cc1)NC(=O)CNC(=O)[C@H](CCCCN)NC(=O)[C@@H](N)CCCCN)C(=O)N[C@@H](C)C(=O)N[C@@H](CC(=O)O)C(=O)N[C@@H](C)C(=O)N1CCC[C@H]1C(=O)Nc1ccc([N+](=O)[O-])cc1 [KKGYVADAP-pNA, H-Lys-Lys-Gly-Tyr-Val-Ala-Asp-Ala-Pro-pNA] (H-KKGYVADAP-pNA)
substrate inhibition (h-meprin β [2]; at concentrations up to 2 mM): no inhibitory effect
Kcat (h-meprin β [2]): 20 ± 4.1 s⁻¹
Kcat/KM (s^-1M^-1) (h-meprin β [2]): 11.0×10^4 ± 4.8×10^3 s^-1M^-1
Km (h-meprin β [2]): 180 µM

mode of inhibition (h-meprin β [3]; [9]): competitive
IC50 (h-meprin β [3]; [10]): 760 nM
Ki (h-meprin β [3]; [11]): 270 nM
IC50 (h-meprin α [4]): 9.6 nM
mode of inhibition (h-meprin α [6]; [9]): competitive
IC50 (h-meprin α [6]; [10]): 12 nM
Ki (h-meprin α [6]; [11]): 3.2 nM
Compound: CCCCC[C@H](CC(=O)NO)C(=O)N[C@H](C(=O)N1CCC[C@H]1CO)C(C)C [actinonin]
IC50 (h-meprin β [5]): 440 nM

Compound: Abz-MGWMDEIDK(Dnp)SG-OH [OCK+]
substrate inhibition at concentrations above (h-meprin β [7]): above 40 µM

Compound: Abz-YVAEAPK(Dpn)G-OH
Kcat (h-meprin β [7]; [12]): 35.0 ± 2.5 s⁻¹
Kcat/KM (s^-1M^-1) (h-meprin β [7]; [12]): 129.0×10^4 ± 3.0×10^4 s^-1M^-1
Km (h-meprin β [7]; [12]): 27 µM
substrate inhibition at concentrations above (h-meprin β [7]): above 100 µM
